Key:
Type in all cases: in vivo
[1] = system: Cabbage Looper (Trichloplusia ni, TRIPNI); test: Insecticidal test for cabbage looper (CL), 128-well diet tray assay; conditions: Trichoplusia ni, 168 h; 50 μg/cm^2 on artificial diet, second instar larvae, five to seven days, 25° C.; read-out: CL rating, % Control (or Mortality)
[2] = system: Yellow Fever Mosquito (Aedes aegypti, AEDSAE); conditions: about 1 day-old larvae, 4000 ppm master solution diluted, 3 days, room temperature
Protocol: Insecticidal Test for Yellow Fever Mosquito (Aedes aegypti, AEDSAE) (“YFM”)
Master plates containing 400 μg of a molecule dissolved in 100 μL of dimethyl sulfoxide (DMSO) (equivalent to a 4000 ppm solution) are used. A master plate of assembled molecules contains 15 μL per well. To this plate, 135 μL of a 90:10 water/acetone mixture is added to each well. A robot (Biomek® NXP Laboratory Automation Workstation) is programmed to dispense 15 μL aspirations from the master plate into an empty 96-well shallow plate (“daughter” plate). There are 6 reps (“daughter” plates) created per master. The created “daughter” plates are then immediately infested with YFM larvae.
The day before plates are to be treated, mosquito eggs are placed in Millipore water containing liver powder to begin hatching (4 g. into 400 mL). After the “daughter” plates are created using the robot, they are infested with 220 μL of the liver powder/larval mosquito mixture (about 1 day-old larvae). After plates are infested with mosquito larvae, a non-evaporative lid is used to cover the plate to reduce drying. Plates are held at room temperature for 3 days prior to grading. After 3 days, each well is observed and scored based on mortality. In the reporting of the results, the “YFM Rating Table” was used.

[3] = system: Beet Armyworm (Spodoptera exigua, LAPHEG); test: Insecticidal test for beet armyworm (BAW), 128-well diet tray assay; conditions: 168 h, 50 μg/cm^2 on artificial diet, second instar larvae, five to seven days, 25° C., read-out: BAW rating, % Control (or Mortality)
[4] = system: Cabbage Looper (Trichloplusia ni, TRIPNI); test: Insecticidal test for cabbage looper (CL), 128-well diet tray assay; conditions: Trichoplusia ni, 168 h; tested at 5 μg/cm^2, second instar larvae, five to seven days; read-out: CL rating, % Control (or Mortality)
[5] = system: Beet Armyworm (Spodoptera exigua, LAPHEG); test: Insecticidal test for beet armyworm (BAW), 128-well diet tray assay; conditions: 168 h, tested at 5 μg/cm^2, second instar larvae, five to seven days, read-out: BAW rating, % Control (or Mortality)

Compound | mortality at 50 µg/cm2 [1] [%] | YFM rating, % Control (or Mortality) [2] | mortality at 50 µg/cm2 [3] [%] | mortality at 5 µg/cm2 [4] [%] | mortality at 5 µg/cm2 [5] [%]
COc1ccc(N2C(=O)CS/C2=N\C(=O)OCCc2ccc(-c3ncn(-c4ccc(OC(F)(F)F)cc4)n3)cc2)c(C)c1 [A10, 4-(1-(4-(Trifluoromethoxy)phenyl)-1H-1,2,4-triazol-3-yl)phenethyl (Z)-(3-(4-methoxy-2-methylphenyl)-4-oxothiazolidin-2-ylidene)carbamate] | 50 to 100 | A (80-100) | 0 |  | 
Cc1ccc(F)c(N2C(=O)CS/C2=N\C(=O)OCCc2ccc(-c3ncn(-c4ccc(OC(F)(F)F)cc4)n3)cc2)c1 [A11, 4-(1-(4-(Trifluoromethoxy)phenyl)-1H-1,2,4-triazol-3-yl)phenethyl (Z)-(3-(2-fluoro-5-methylphenyl)-4-oxothiazolidin-2-ylidene)carbamate] | 50 to 100 | A (80-100) | 0 to 50 |  | 
Cc1ccc(Cl)c(N2C(=O)CS/C2=N\C(=O)OCCc2ccc(-c3ncn(-c4ccc(OC(F)(F)F)cc4)n3)cc2)c1 [A12, 4-(1-(4-(Trifluoromethoxy)phenyl)-1H-1,2,4-triazol-3-yl)phenethyl (Z)-(3-(2-chloro-5-methylphenyl)-4-oxothiazolidin-2-ylidene)carbamate] | 50 to 100 | A (80-100) | 50 to 100 |  | 
COc1ccc(C)cc1N1C(=O)CS/C1=N\C(=O)OCCc1ccc(-c2ncn(-c3ccc(OC(F)(F)F)cc3)n2)cc1 [A13, 4-(1-(4-(Trifluoromethoxy)phenyl)-1H-1,2,4-triazol-3-yl)phenethyl (Z)-(3-(2-methoxy-5-methylphenyl)-4-oxothiazolidin-2-ylidene)carbamate] | 50 to 100 | A (80-100) | 50 to 100 |  | 
Cc1ccc(C(F)(F)F)c(N2C(=O)CS/C2=N\C(=O)OCCc2ccc(-c3ncn(-c4ccc(OC(F)(F)F)cc4)n3)cc2)c1 [A14, 4-(1-(4-(Trifluoromethoxy)phenyl)-1H-1,2,4-triazol-3-yl)phenethyl (Z)-(3-(5-methyl-2-(trifluoromethyl)phenyl)-4-oxothiazolidin-2-ylidene)carbamate] | 50 to 100 | A (80-100) | 50 to 100 |  | 
CCCc1ccc(C)cc1N1C(=O)CS/C1=N\C(=O)OCCc1ccc(-c2ncn(-c3ccc(OC(F)(F)F)cc3)n2)cc1 [A15, 4-(1-(4-(Trifluoromethoxy)phenyl)-1H-1,2,4-triazol-3-yl)phenethyl (Z)-(3-(5-methyl-2-propylphenyl)-4-oxothiazolidin-2-ylidene)carbamate] | 50 to 100 | A (80-100) | 50 to 100 |  | 
CCOc1ccc(C)cc1N1C(=O)CS/C1=N\C(=O)OCCc1ccc(-c2ncn(-c3ccc(OC(F)(F)F)cc3)n2)cc1 [A16, 4-(1-(4-(Trifluoromethoxy)phenyl)-1H-1,2,4-triazol-3-yl)phenethyl (Z)-(3-(2-ethoxy-5-methylphenyl)-4-oxothiazolidin-2-ylidene)carbamate] | 50 to 100 | A (80-100) | 50 to 100 |  | 
Cc1cc(N2C(=O)CS/C2=N\C(=O)OCCc2ccc(-c3ncn(-c4ccc(OC(F)(F)F)cc4)n3)cc2)c(C(C)C)cc1F [A17, 4-(1-(4-(Trifluoromethoxy)phenyl)-1H-1,2,4-triazol-3-yl)phenethyl (Z)-(3-(4-fluoro-2-isopropyl-5-methylphenyl)-4-oxothiazolidin-2-ylidene)carbamate] | 50 to 100 | A (80-100) | 50 to 100 |  | 
Cc1cc(Cl)c(N2C(=O)CS/C2=N\C(=O)OCCc2ccc(-c3ncn(-c4ccc(OC(F)(F)F)cc4)n3)cc2)cc1C [A18, 4-(1-(4-(Trifluoromethoxy)phenyl)-1H-1,2,4-triazol-3-yl)phenethyl (Z)-(3-(2-chloro-4,5-dimethylphenyl)-4-oxothiazolidin-2-ylidene)carbamate] | 0 | D (No activity noticed in this bioassay) | 0 |  | 
Cc1ccc(C(C)C)c(N2C(=O)CS/C2=N\C(=O)OC(C)Cc2ccc(-c3ncn(-c4ccc(OC(F)(F)F)cc4)n3)cc2)c1 (centres unmarked) [A19, 1-(4-(1-(4-(Trifluoromethoxy)phenyl)-1H-1,2,4-triazol-3-yl)phenyl)propan-2-yl (Z)-(3-(2-isopropyl-5-methylphenyl)-4-oxothiazolidin-2-ylidene)carbamate] | 50 to 100 | B (More than 0-Less than 80) | 50 to 100 |  | 
Cc1ccc(C(C)C)c(N2C(=O)CS/C2=N\C(=O)OCC(F)c2ccc(-c3ncn(-c4ccc(OC(F)(F)C(F)(F)F)cc4)n3)cc2)c1 (centres unmarked) [A26, 2-Fluoro-2-(4-(1-(4-(perfluoroethoxy)phenyl)-1H-1,2,4-triazol-3-yl)phenyl)ethyl (Z)-(3-(2-isopropyl-5-methylphenyl)-4-oxothiazolidin-2-ylidene)carbamate] |  |  |  | 0 to 50 | 50 to 100
